Results: ChEMBL document CHEMBL3232855, “The discovery of N-((2H-tetrazol-5-yl)methyl)-4-((R)-1-((5r,8R)-8-(tert-butyl)-3-(3,5-dichlorophenyl)-2-oxo-1,4-diazaspiro[4.5]dec-3-en-1-yl)-4,4-dimethylpentyl)benzamide (SCH 900822): a potent and selective glucagon receptor antagonist” (J Med Chem, 2014)

Columns and labels:
[1] = target: T1, Type-1 angiotensin II receptor (Homo sapiens) (UniProt P30556); assay: Binding affinity to AT1 receptor (unknown origin) at 10 uM by antagonist displacement assay relative to control
T1 sequence (whole entry): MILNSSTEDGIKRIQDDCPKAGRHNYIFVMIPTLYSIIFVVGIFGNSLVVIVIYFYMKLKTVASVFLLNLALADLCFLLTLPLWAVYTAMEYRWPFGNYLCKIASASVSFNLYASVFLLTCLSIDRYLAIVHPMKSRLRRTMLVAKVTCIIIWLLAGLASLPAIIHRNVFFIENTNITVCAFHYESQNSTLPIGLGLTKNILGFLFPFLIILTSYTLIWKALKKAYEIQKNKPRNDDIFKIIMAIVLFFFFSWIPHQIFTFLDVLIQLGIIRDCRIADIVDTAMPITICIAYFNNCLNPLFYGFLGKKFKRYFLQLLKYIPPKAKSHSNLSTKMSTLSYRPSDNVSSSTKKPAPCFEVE

[2] = Plasma concentration in diet-induced obese ICR mouse model at 10 mg/kg, po measured at 24 hrs by HPLC/MS/MS analysis; format: ADME, organism-based; set-up: dose 10 mg/kg, route oral
[3] = target: T2, Vasoactive intestinal polypeptide receptor 1 (Homo sapiens) (UniProt P32241); assay: Binding affinity to VIP-1 receptor (unknown origin) at 10 uM by agonist displacement assay relative to control
T2 sequence (whole entry): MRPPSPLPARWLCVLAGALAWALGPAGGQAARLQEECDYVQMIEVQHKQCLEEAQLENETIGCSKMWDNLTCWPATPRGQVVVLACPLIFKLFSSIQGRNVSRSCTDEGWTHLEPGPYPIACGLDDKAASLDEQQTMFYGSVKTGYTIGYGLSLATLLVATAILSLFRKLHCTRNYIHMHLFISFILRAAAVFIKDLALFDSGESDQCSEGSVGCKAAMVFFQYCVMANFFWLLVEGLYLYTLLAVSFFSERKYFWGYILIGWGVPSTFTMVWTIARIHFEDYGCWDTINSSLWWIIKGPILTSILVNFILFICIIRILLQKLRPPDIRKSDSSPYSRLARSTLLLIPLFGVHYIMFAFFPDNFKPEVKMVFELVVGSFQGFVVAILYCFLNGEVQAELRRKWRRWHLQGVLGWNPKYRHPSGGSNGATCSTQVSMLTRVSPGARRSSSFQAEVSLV

Question: For `CC(C)(C)CC[C@H](c1ccc(C(=O)NCc2nn[nH]n2)cc1)N1C(=O)C(c2cc(Cl)cc(Cl)c2)=N[C@]12CC[C@@H](C(C)(C)C)CC2`, which inhibition [1] is on record?
Answer: 93%

Question: What about the concentration at 24 h [2] of the same molecule?
Answer: 810 nM

Question: And the inhibition [3]?
Answer: 75%
